Tests used:
uninfected cells = conditions: Lewandowski et al. 1989; cited from earlier work
mice = conditions: oral, at the dosage employed; cited from earlier work
thymidine phosphorylase = conditions: cited from earlier work
aldehyde oxidase = assay: Michaelis constant / Vmax of 2-pyrimidinone deoxyribose analogs with the liver enzyme; type: biochemical, rat; conditions: pH 7.5 versus pH 9.5
Description: (§1) Rat hepatic tissue was washed with ice-cold 1.15% KCl and blotted dry. The tissue was then homogenized with a tissue homogenizer, in a volume of 1.15% KCl that was 3 times the tissue weight, to form a 25% (w/v) homogenate. The homogenate was then centrifuged at 10,000 g for 10 minutes at 4° C. The resulting supernatant was filtered through Miracloth (similar to cheese cloth) then dialyzed overnight against 50 mM Tris-HCl buffer pH 7.5 and stored at -80° C. before use. Rat hepatocytes were obtained by a perfusion technique then the cells were extracted with 10 mM phosphate buffer, pH 7.5, containing 1M KCl and dialyzed for 4 hours against 50 mM Tris-HCl buffer pH 7.5.
(§2) For the standard assay condition, the reaction mixture contained 50 mM Tris-HCl, pH 7.5, 1 mM EDTA, 180 μM of IPdR (or its analogs) and approximately 0.01 mg protein of 10,000 g supernatant of tissue homogenate in a final volume of 500 μl and the incubation was at 37° C. for 10 minutes unless specified otherwise. 300 μl of reaction mixture was removed at the end of incubation and mixed with 630 μl acetonitrile then agitated. The precipitated protein were removed by centrifugation and the supernatant was lyophilized to dryness. The samples were reconstituted to the original aliquot volume with the HPLC mobile phase buffer and analyzed on a Alltech RP-18 column. IPdR, IUdR and IU were detected at a UV absorption wavelength of 230 nm, and IPdR was also detected at a UV absorption wavelength of 335 nm. The mobile phase was 10% acetonitrile/90%mM ammonium acetate, pH 6.8 and the flow rate was 1 ml/minute. Standard curves of IPdR and IUdR were established from the integration value of known concentrations.
(§3) Several 2-pyrimidinone deoxyribose analogs were examined for the conversion to their deoxyuridine counterparts. […] Nevertheless the relative Vmax for IPdR in the reaction at pH 7.5 and pH 9.5 is the same. […] The synthetic substrates for aldehyde oxidase appear to be better than its natural substrates, N^1 -methylnicotinamide and acetaldehyde, as judged by the potency of inhibition of N^1 -methylnicotinamide and acetaldehyde to the IPdR oxidation reaction (Table IV). The rate of reactivity of the liver enzyme with different IPdR analogs follows the order EPdR, IP, IPdR, 5-bromo-2-pyrimidinone deoxyribose (BPdR) and 5-methyl-2-pyrimidinone deoxyribose (MPdR) or 5-ethyl-2-pyrimidinone deoxyribose (EtPdR) (Table V). Electronegative substituents in the 5-position seemed to increase the substrate activity in this oxidation reaction.

[1] = as above; type: biochemical, rat; conditions: rat, liver aldehyde oxidase
Description: as §1, §2, §3

IPdR oxidase = assay: Conversion of IPdR to IUdR by cell extracts (rat tissues); type: in vitro ADME
Description: as §1, §2
Differential fractionation centrifugation was used in an attempt to localize this IPdR conversion enzyme activity in the liver homogenate. The enzyme activity assay was performed on each fraction. […] Further purification was achieved by use of DEAE cellulose column chromatography, blue Sepharose column chromatography and glycerol gradient centrifugation in this order. This IPdR oxidase activity was purified 380 fold starting from the crude extracts of rat liver. The partially purified enzyme catalyzed IUdR synthesis at a rate of 3.8 μmoles per minute per milligram of protein at 37° C. under these conditions. The apparent molecular weight of this enzyme in both rats and humans as determined by centrifugation on a 20 to 40% glycerol gradient is approximately 280,000 dalton. Neither cofactor nor divalent cations requirement has been found for the rat liver enzyme or the human liver enzyme.
Tissue specificity of the conversion of IPdR

Xanthine oxidase = conditions: shown previously (Lewandowski et al. 1989); cited from earlier work
Alcohol dehydrogenase = assay: IPdR conversion by alcohol dehydrogenase; type: biochemical; conditions: purified preparation
Source text: In order to determine which enzyme is responsible for the catalysts of this IPdR oxidation, a series of known oxido-reductases which have similar capability to oxidize a carbon atom with an adjacent amino group into a carbonyl functionality were explored for their ability to catalyze IPdR oxidation. […] A mixed function oxidase system prepared from the microsome of rat liver a broad spectrum of substrates and is NADPH dependent. […] Alcohol dehydrogenase (which can be obtained from Sigma) and alcohol oxidase (which can be obtained from Sigma) both reside in the soluble fraction of liver cell extracts, but the conversion of IPdR to […] was not detected with purified preparation of either enzyme under the same conditions that they converted their natural substrates effectively. […]

## O=c1ncc(I)cn1[C@H]1C[C@H](O)[C@@H](CO)O1 [IPdR, 1-(2-deoxy-β-D-ribofuranosyl)-5-(iodo)-2-pyrimidinone]
Uninfected cells
  toxicity to uninfected cells: not toxic
mice
  toxicity to mice: not toxic
Thymidine phosphorylase
  substrate for thymidine phosphorylase: not substrates for thymidine phosphorylase
Aldehyde oxidase
  relative Vmax: the same
[1]; pH 7.5
  Km: 150 µM
[1]; pH 9.5
  Km: 87 µM
IPdR oxidase; compared with whole liver extract
  IPdR oxidase specific activity of hepatocyte extracts: very similar specific activity
IPdR oxidase; hepatocyte (rat), 3 samples
  Specific activity of the conversion of IPdR to IUdR: 5-11 n mole/mg protein/min
IPdR oxidase; intestine (rat), 3 samples, conversion not detected
  Specific activity of the conversion of IPdR to IUdR: < 0.02 n mole/mg protein/min
IPdR oxidase; kidney (rat), 3 samples
  Specific activity of the conversion of IPdR to IUdR: 0.8-1.6 n mole/mg protein/min
IPdR oxidase; liver (rat), 5 samples
  Specific activity of the conversion of IPdR to IUdR: 5-15 n mole/mg protein/min
IPdR oxidase; lung (rat), 3 samples, conversion not detected
  Specific activity of the conversion of IPdR to IUdR: < 0.02 n mole/mg protein/min
IPdR oxidase; rat kidney and spleen extracts, compared with liver
  IPdR oxidase activity in extracts of kidney and spleen: much less active
IPdR oxidase; rat lung or intestine extracts
  IPdR oxidase activity in lung or intestine extracts: cannot be detected
IPdR oxidase; spleen (rat), 3 samples
  Specific activity of the conversion of IPdR to IUdR: 0.2-0.5 n mole/mg protein/min
Xanthine oxidase
  conversion of IPdR to IUdR by xanthine oxidase: could not be converted to IUdR
Alcohol dehydrogenase
  conversion of IPdR by alcohol dehydrogenase: not detected
